According to the supplement of paper PMC10307832:

Experiments:
Shikonin + Navitoclax = compound: CC(C)=CC[C@@H](O)C1=CC(=O)c2c(O)ccc(O)c2C1=O [Shikonin] + CC1(C)CCC(c2ccc(Cl)cc2)=C(CN2CCN(c3ccc(C(=O)NS(=O)(=O)c4ccc(N[C@H](CCN5CCOCC5)CSc5ccccc5)c(S(=O)(=O)C(F)(F)F)c4)cc3)CC2)C1 [Navitoclax] (partner 0.5 µM); experiment: relative viability (nuclei count vs DMSO), 5 days (fraction); higher = more cells survive
Procedure, shortened: (§1)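 After 5 days of treatment, lung cancer cells in 1536-well plates were fixed and stained in a single step (final 0.05% Triton X-100, 1% formaldehyde, 1 ug/ml Hoechst) and their nuclei counted on 4× images. Treatment had been applied by pin tool the day after seeding as one drug alone or as a fixed anchor-drug dose with five library-drug doses (not always all listed) in √10 steps. Relative viability is the nuclei count of treated wells divided by that of vehicle wells, and values are medians of duplicate plates.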

[1] = compound: CC(C)N(CCCNC(=O)Nc1ccc(C(C)(C)C)cc1)C[C@H]1O[C@@H](n2ccc3c(N)ncnc32)[C@H](O)[C@@H]1O + COc1cc2c(Oc3ccc(NC(=O)C4(C(=O)Nc5ccc(F)cc5)CC4)cc3F)ccnc2cc1OCCCN1CCOCC1 [Foretinib] (partner 0.25 µM); experiment: as above
Procedure, shortened: as §1

Cell Line	relative viability (Shikonin + Navitoclax; first compound 0.01 µM)	relative viability (Shikonin + Navitoclax; first compound 0.1 µM)	relative viability (Shikonin + Navitoclax; first compound 0.3162 µM)	relative viability (Shikonin + Navitoclax; first compound 1 µM)	relative viability ([1]; first compound 0.08 µM)	relative viability ([1]; first compound 0.253 µM)	relative viability ([1]; first compound 0.8 µM)	relative viability ([1]; first compound 2.53 µM)	relative viability ([1]; first compound 8 µM)
SK-MES-1	1.25	1.19	1.29	1.29	0.792	0.848	0.881	1	0.804
NCI-H520		1.1	1.19	1	0.685	0.878	0.644	0.817	0.704
HCC-366	1.08	1.06	1.09	1.08	0.89	0.939	0.975	0.9	0.867
201T	1.2	1.26	1.18	1.19	1.05	1.04		1.13	1.13
HCC-827	1.02	1.08	0.99	0.998	0.907	1.07		0.989	0.91
NCI-H661					1.08	1.13	1.09	1.11	1.06
NCI-H2085	1.08	1.09	1.13	0.664	0.957	1.04	1.1	0.928	1.02
NCI-H647	0.991	0.886	1.25	1.02	1.23	1.27		1.17	1.13
SW 1573	1.2	1.13	1.01	0.869	0.81	0.707	0.825	0.927	1.08
A-427	0.931	1.14	0.99	0.983	1.08	1.04	1.1	1.1	0.966
NCI-H460	1.16	1.49	1.25	1.19	1.05	1.1	1.03	1.05	0.996
NCI-H1703	1.12	1.08	0.991	0.19	0.294	0.33		0.403	0.401
NCI-H1792	0.607	0.639	0.58	0.778					
Calu-6	1.1	1.11	0.981	0.448	0.847	0.872	0.923	0.839	0.823
SK-LU-1	0.966	0.972	1.08	0.589	0.904	0.919	0.898	0.911	0.754
EMC-BAC-2	1.13	1.1	1.28	1.22	0.975	0.98	1.04	1.09	0.935
LK-2	0.913	0.866	1.03	0.852	1.36	0.816	1.36	1.2	1.44
NCI-H2228	0.799	0.846	0.911	0.895	0.865	0.895	0.931	0.976	0.905
NCI-H322M	1.23	1.21	1.32	1.27	0.904	0.894	0.94	1.02	1.06
NCI-H1975	1.16	1.37	1.33	0.91	0.853	0.916	0.871	0.707	0.765
NCI-H1944	0.988	1.1	1.08	1.14	0.811	0.88	0.958	0.919	0.882
LU99A	0.924	0.88	0.833	0.766	0.795	0.782	0.78	0.767	0.749
NCI-H1993		0.814	0.936	1.01	0.755			0.796	0.784
NCI-H2405	0.962	0.922	1.16	0.837	1.02	1.07	1.04	1.12	1.03
NCI-H2023	1.03	1.06	1.03	0.97	0.811	0.958	1.02	1.03	0.773
HCC-15	0.742	0.655	0.784	0.747	0.948	1.04	1.11	0.998	0.981

Cell Line	relative viability (Shikonin + Navitoclax; first compound 0.01 µM)	relative viability (Shikonin + Navitoclax; first compound 0.1 µM)	relative viability (Shikonin + Navitoclax; first compound 0.3162 µM)	relative viability (Shikonin + Navitoclax; first compound 1 µM)	relative viability ([1]; first compound 0.08 µM)	relative viability ([1]; first compound 0.253 µM)	relative viability ([1]; first compound 0.8 µM)	relative viability ([1]; first compound 2.53 µM)	relative viability ([1]; first compound 8 µM)
HCC-44	1.04	0.909	1.1	1.07					
COR-L23	1.13	1.26	1.05	0.908	0.843	1.02	1.02	0.986	0.962
HCC-78	0.718	0.964	0.942	0.841	0.509	0.497	0.5	0.524	0.602
NCI-H1299	1.03	1.09	1.06	1.05	1.05	1.08	1.08	1.1	1.01
PC-14	1.05	1.1	1.23	1.02	0.912	0.944	0.896	0.95	0.792
NCI-H2126	0.84	0.86	0.879	0.864	1.18	1.04	1.16	1.13	1.2
BEN	0.0555	0.0688	0.0568	0.096	0.629	0.935	0.689	0.567	0.697
LCLC-103H					0.704	0.744	0.717	0.627	0.71
EKVX	0.828	0.897	1.21	0.903	0.787	0.793	0.804	0.801	0.665
LXF-289	1.01	0.873	0.96	0.967	0.96	1.03	0.94	1.01	0.94
ABC-1					0.92	1		1.41	1.07
NCI-H727	0.405	0.502	0.366	0.295	0.872	0.891	0.777	1.13	0.877
NCI-H1650	1.3	1.24	1.05	1.07	1.12	0.939		1.32	0.987
NCI-H2087	1.01	1.15	1.01	0.917	1.1	1.32	1.22	1.14	1.22
NCI-H1793	0.43	0.379	0.407	0.76	0.709		0.677	0.606	0.621
LC-2-ad	0.493	0.413	0.552	0.465	0.895	0.9	0.894	0.899	0.9
COR-L 105	0.9	0.786	0.747	0.768	1.14	0.99	1.02	1.07	1.03
NCI-H1355	0.81	0.939	0.995	0.983	0.755	0.839	0.933	0.941	0.972
H3255	0.454	0.695	0.519	0.584	0.92	0.881	0.897	0.797	0.792
NCI-H2009	1.23	1.16	1.19	1.05	1.26	1.19	1.23	1.24	1.19
NCI-H1734	0.941	0.83	0.949	0.74	0.825	1.01	0.918	0.796	0.804
HOP-62	1.05	1.15	1.01	1.04	0.974	1.23	1.02	1.06	0.945
LOU-NH91	0.662	0.646	0.736	0.664	0.858	0.946	0.571	0.958	0.924
ChaGo-K-1	0.882	1.4	1.01	1.44	0.915	0.924	0.974	0.901	0.976
NCI-H23	0.821	0.748	0.935	0.781	0.891	0.964	1.02	0.937	0.945
RERF-LC-KJ	0.835	0.996	0.758	1.11	0.906	0.814	0.888	0.794	0.79

Cell Line	relative viability (Shikonin + Navitoclax; first compound 0.01 µM)	relative viability (Shikonin + Navitoclax; first compound 0.1 µM)	relative viability (Shikonin + Navitoclax; first compound 0.3162 µM)	relative viability (Shikonin + Navitoclax; first compound 1 µM)	relative viability ([1]; first compound 0.08 µM)	relative viability ([1]; first compound 0.253 µM)	relative viability ([1]; first compound 0.8 µM)	relative viability ([1]; first compound 2.53 µM)	relative viability ([1]; first compound 8 µM)
NCI-H1437	1.14	1.09	1.14	1.12	1.21	1.2	1.19	1.23	1.11
NCI-H596	0.936	0.911	0.968	0.907	0.792		0.846	1.02	0.872
NCI-H1666	0.923	1.02	0.962	0.723	0.976	0.949	1.03	0.938	0.92
SW 900					0.737	0.893		1.09	0.952
NCI-H1651	1.03	0.98	1.01	1.06	0.876	0.79	0.86	0.871	0.808
NCI-H1755	1.04	0.988	1.14	1.07	0.92	0.909	0.925	0.857	0.868
NCI-H838	1.12	1.25	1.28	1.2	1.05	0.981	1.17	0.981	0.943
HARA	1.14	1.13	1.15	1.13	0.751	0.878	0.756	0.6	0.738
NCI-H650					0.966	1.03	1.05	1.07	0.962
NCI-H1563					0.952	0.975	0.988	0.957	0.931
NCI-H2347	0.775	0.73	0.781	0.798	1.1	0.778	0.865	0.721	0.993
A549	1.46	1.49	1.35	1.17	0.939	1.06	1.05	0.522	0.885
LCLC-97TM1	0.46	0.4	0.495	0.277	0.927	0.821	1.02	0.999	0.868
EPLC-272H	1.17	1.07	1.27	1.14	0.688	0.469	0.73	0.845	0.669
NCI-H2342					0.931	0.9	0.9	1.21	1
NCI-H1915	0.719	0.793	0.795	0.847	1.02	1.07	1.06	1	1.03
NCI-H3122	1.03	1.09	1.05	1.09	0.887	0.951	0.979	0.922	0.887
NCI-H441	0.615	0.76	0.742	0.396	1.01	0.913		0.801	0.968
NCI-H2170	0.578	0.511	0.58	0.61	0.967	0.987	0.995	0.992	0.977
NCI-H1623					0.836	0.952	0.795	0.83	0.801
NCI-H1395	1.18	1.16	1.14	1.09	0.957	0.839	0.909	0.967	0.853
IA-LM	0.879	0.858	0.796	0.654	1.01	1.28	1.14	1.2	0.99
NCI-H358					0.548	0.63	0.67	0.662	0.58
PC-3 [JPC-3]	0.758	0.848	0.884	0.786	1.05	1.15	0.96	1.05	0.936
CAL-12T	1.29	1.3	1.32	1.22	1.2	1.06	1.07	1.2	0.944
